Measurements as given in patent US5049637A, “1,2,3,4,10,14b-hexahydrodibenzo[c,f]pyrazino-[1,2-a]azepino derivatives and 10-aza, 10-oxa and 10-thia analogues” (Monash University, priority 1987, dated 1991).

Legend:
[1] = test system: pressor effects of 5-hydroxytryptamine; test: Pressor effects of 5-hydroxytryptamine in rats; type: in vivo, rat; details: rat, intravenous; read-out: Intravenous dose depressing/reducing the pressor responses to 5-hydroxytryptamine
Protocol: (§1) The compound of Example 2 was found in low concentrations to inhibit contractions of the guinea-pig isolated ileum and rat isolated stomach strip caused by histamine and 5-hydroxytryptamine respectively. […] Concomitantly, the depressor effects of histamine were blocked, as were the pressor effects of 5-hydroxytryptamine for over 30 minutes. The pressor effects of 5-hydroxytryptamine in anaesthetised and pithed rats were inhibited by intravenous doses of 0.3-1.0 mg/kg body weight. Slightly higher doses reduced the bradycardia and the depressor response (the Bezold-Jarisch reflex mediated by 5-HT3 receptors) to 5-hydroxytryptamine in anaesthetised rats. The drug inhibited oedema in the rat paw caused by intraplantar 5-hydroxytryptamine. […] In mice it inhibited diarrhoea caused by L-5-hydroxytryptophan. In guinea pigs, intravenous doses of 0.03 mg/kg and above reduced the bronchoconstrictor effects of histamine and 5-hydroxytryptamine.
(§2) In cats, the effects of the ganglion stimulant McNeil -A-343 and histamine were reduced. Following intravenous injection into guinea-pigs, […] reduced histamine and 5-hydroxytryptamine induced broncho-constriction. Concentrations of 1 μg/ml or greater relaxed the isolated rat uterus in vitro.
(§3) The compound of Example 4 when injected into rats at intravenous doses of 0.3 mg/kg or greater reduced the pressor effects of 5-hydroxytryptamine and also the depressor effects of histamine. In cats, the effect of histamine was reduced after these doses also.

[2] = test system: depressor effects of histamine; test: Effects of histamine in cats; type: in vivo, cat; details: intravenous
Protocol: as §1, §2, §3

[3] = test system: arterial blood pressure and heart rate; test: Arterial blood pressure and heart rate in guinea pigs after intravenous doses; type: in vivo, guinea pig; details: intravenous 0.01 mg/kg or greater
[4] = test system: isolated guinea pig ileum (carbachol-induced contractions); test: Block of carbachol-induced contraction of the isolated guinea-pig ileum; details: block of contractions of isolated guinea pig ileum induced by carbachol
Protocol: (§4) Compounds according to formula I were tested for their ability to block contractions of the isolated guinea pig ileum induced by KCl, carbachol, or histamine at a concentration of 10^-7 M. Ileum preparations were prepared according to standard methodology. The concentrations shown are the minimum required to show activity.

[5] = test system: isolated guinea pig ileum (histamine-induced contractions); test: Block of histamine-induced contraction of the isolated guinea-pig ileum
Protocol: as §1, §4

[6] = test system: isolated guinea pig ileum (KCl-induced contractions); test: Block of KCl-induced contraction of the isolated guinea-pig ileum; details: block of contractions of isolated guinea pig ileum induced by KCl
Protocol: as §4

[7] = test system: depressor effects of histamine; test: Depressor effects of histamine in rats; type: in vivo, rat; details: Rattus norvegicus, intravenous, read-out: Intravenous dose reducing the depressor effects of histamine
Protocol: as §1, §3

isolated rat uterus = test: Isolated rat uterus in vitro
[8] = test system: bronchoconstrictor effects of histamine and 5-hydroxytryptamine; test: Histamine and 5-hydroxytryptamine induced bronchoconstriction in guinea pigs; type: in vivo, guinea pig; details: Cavia porcellus, intravenous, read-out: Intravenous dose reducing histamine and 5-hydroxytryptamine bronchoconstriction
Protocol: as §1, §2, §3
Thus doses of 1 mg/kg given intraperitoneally attenuated the facilitation of spinal reflex activity caused by p-chloroamphetamine, and also the facilitation of spinal reflexes induced by fenfluramine in spinal and decerebrate rats. […] The drug in doses of 10 and 20 mg/kg intraperitoneally and in doses of 20 mg/kg by mouth attenuated morphine-induced catalepsy. We conclude therefore that this drug is an orally active drug with central actions, particularly affecting serotonergic mechanisms, but has no effect in vitro (Table 1). […] Thus it was found after intravenous doses of 0.03 mg/kg to reduce histamine and 5-hydroxytryptamine bronchoconstriction in the guinea pig.

Compound: NC(=S)N1CCN2c3ccccc3Cc3ccccc3C2C1 (centres unmarked) [Example 4, 2-Thiocarboxamido-1,2,3,4,10,14b-hexahydrodibenzo [c,f]pyrazino[1,2-a]azepine]
- minimal effective dose [1]: ≥ 0.3 mg/kg
- Effects of histamine (depressor) in cats [2]: reduced
- Effects on arterial blood pressure and heart rate compared with the compound of Example 2 [3]: smaller effects
- Effect on Carbachol [4]: - (no effect)
- minimal effective concentration ([5]; Cavia porcellus, isolated guinea pig ileum, histamine 10^-7 M, read-out: Effect on Histamine: minimum concentration required to show activity): 0.01 to 0.1 µM
- Effect on Histamine ([5]; block of contractions of isolated guinea pig ileum induced by histamine at 10^-7 M): ++
- Effect on KCl [6]: - (no effect)
- minimal effective dose [7]: ≥ 0.3 mg/kg
- Concentration reducing contractions of the isolated rat uterus caused by 5-hydroxytryptamine or high potassium concentrations (isolated rat uterus): ≥ 0.1 µg/mL
- Anti-spasmodic action (isolated rat uterus; 0.1 μg/ml or greater): anti-spasmodic action
- minimal effective dose [8]: ≥ 0.01 mg/kg
